The test system of this experiment is duplex-form calf thymus DNA (CT-DNA). Description: Thermal denaturation studies with calf thymus DNA. It is filed as binding. To be noted: [PBD]:[DNA] molar ratio 1:5, CT-DNA 100 μM, ligand 20 μM, pH 7.00. The method, then:
Compounds have been subjected to thermal denaturation studies with duplex-form calf thymus DNA (CT-DNA) using a modification of a reported procedure. Working solutions in aqueous buffer (10 mM NaH2PO4/Na2HPO4, 1 mM Na2EDTA, pH 7.00+0.01) containing CT-DNA (100 (μm in phosphate) and the PBD (20(μm) have been prepared by addition of concentrated PBD solutions in DMSO to obtain a fixed [PBD]/[DNA] molar ratio of 1:5. The DNA-PBD solutions have been incubated at 37° C. for 0 and 18 hrs prior to analysis. Samples have been monitored at 260 nm using a Beckman DU-800 spectrophotometer fitted with high performance temperature controller, and heated at 1° C. min^−1 in the 40-110° C. range. DNA helix→coil transition temperatures (Tm) have been obtained from the maxima in the d(A260)/d T derivative plots. Drug-induced alterations in DNA melting behavior are given by: ΔTm=Tm(DNA+PBD)−Tm(DNA alone), where the Tm value for the PBD-free CT-DNA is 68.5±0.01.
The DNA-binding for these novel C8-linked isoxazoline-PBD hybrids has been examined by thermal denaturation studies using calf thymus CT-DNA. […] Data for 5a-c, 9b and 9g and DC-81 are included in Table 4 for comparison.

From patent US8372831B2, “Isoxazoline linked pyrrolo[2,1-c][1,4]benzodiazepine hybrids as potential anticancer agents and the process for preparation thereof” (Council of Scientific & Industrial Research, priority 2008, dated 2013) come the findings set out here.

`COc1cc2c(cc1OCCCCCOc1c(OC)cc(C3CC(c4ccc(OC)c(OC)c4OC)=NO3)cc1OC)N=C[C@@H]1CCCN1C2=O` (stereo partly drawn) [Compound 9g, (11aS)-8-(5-[(2,6-di(methyloxy)-4-3-[2,3,4-tri(methyloxy)phenyl]-4,5-dihydro-5-isoxazolylphenyl)oxy]pentyloxy)-7-(methyloxy)-2,3,5,11a-tetrahydro-1H-benzo[e]pyrrolo[1,2-a][1,4]diazepin-5-one]: the “ΔTm after incubation at 37° C. for 0 hrs” value was determined as 1.4 °C and the “ΔTm after incubation at 37° C. for 18 hrs” value (from here on “ΔTm … for 18 hrs”) worked out at 2.1 °C.

Regarding `COc1cc2c(cc1O)N=CC1CCCN1C2=O` (centres unmarked) [DC-81, reference compound], the “ΔTm after incubation at 37° C. for 0 hrs” value turned out to be 0.3 °C and the “ΔTm … for 18 hrs” value came out at 0.7 °C.

In the case of `COc1cc(C2=NOC(c3cc(OC)c(OC)c(OC)c3)C2)ccc1OCCCOc1cc2c(cc1OC)C(=O)N1CCC[C@H]1C=N2` (stereo partly drawn) [Compound 5a, (11aS)-7-(methyloxy)-8-(3-[(2-(methyloxy)-4-5-[3,4,5-tri(methyloxy)phenyl]-4-,5-dihydro-3-isoxazolylphenyl)oxy]propyloxy)-2,3,5,11a-tetrahydro-1H benzo[e]pyrrolo[1,2-a][1,4]diazepi-5-one], the “ΔTm after incubation at 37° C. for 0 hrs” value amounted to 3.9 °C and the “ΔTm … for 18 hrs” value is 6.0 °C.

Regarding `COc1cc(C2=NOC(c3cc(OC)c(OC)c(OC)c3)C2)ccc1OCCCCCOc1cc2c(cc1OC)C(=O)N1CCC[C@H]1C=N2` (stereo partly drawn) [Compound 5c, (11aS)-7-(methyloxy)-8-(5-[(2-(methyloxy)-4-5-[3,4,5-tri(methyloxy)phenyl]-4,5-dihydro-3-isoxazolylphenyl)oxy]pentyloxy)-2,3,5,11a-tetrahydro-1H benzo[e]pyrrolo[1,2-a][1,4]diazepi-5-one], the “ΔTm after incubation at 37° C. for 0 hrs” value is 7.0 °C and the “ΔTm … for 18 hrs” value came out at 8 °C.
